From patent publication US6022861A, “Ketoheterocyclic inhibitors of factor Xa” (COR Therapeutics, Inc., priority 1995, dated 2000)

How the values were obtained:
thrombin = thrombin (Homo sapiens, UniProt P00734); assay: Thrombin amidolytic assay (Chromozym TH); format: biochemical; conditions: read-out: Inhibitory Activity (IC50) Thrombin
Method: The compounds of the present invention are dissolved in buffer to give solutions containing concentrations such that assay concentrations range from 0 to 100 μM. In the assays for thrombin, prothrombinase and factor Xa, a synthetic chromogenic substrate is added to a solution containing test compound and the enzyme of interest and the residual catalytic activity of that enzyme is determined spectrophotometrically. The IC50 of a compound is determined from the substrate turnover.
The factor Xa and thrombin assays were performed at room temperature, in 0.02 M Tris·HCl buffer, pH 7.5, containing 0.15 M NaCl. The rates of hydrolysis of the para-nitroanilide substrate S-2765 (Chromogenix) for factor Xa, and the substrate Chromozym TH (Boehringer Mannheim) for thrombin following preincubation of the enzyme with inhibitor for 5 minutes at room temperature, and were determined using the Softmax 96-well plate reader (Molecular Devices), monitored at 405 nm to measure the time dependent appearance of p-nitroaniline.

[1] = Coagulation parameters (aPTT, PT) in rabbit venous thrombosis model; format: in vivo; conditions: for PT fold increase over baseline / aPTT fold increase over baseline: steady state, mean ± SD
From the text: (§2) Rabbits were anesthetized with I.M. injections of Ketamine, Xylazine, and Acepromazine cocktail. A standardized protocol consisted of insertion of a thrombogenic cotton thread and copper wire apparatus into the abdominal vena cava of the anesthetized rabbit. A non-occlusive thrombus was allowed to develop in the central venous circulation and inhibition of thrombus growth was used as a measure of the antithrombotic activity of the studied compounds. Test agents or control saline were administered through a marginal ear vein catheter. A femoral vein catheter was used for blood sampling prior to and during steady state infusion of test compound. Initiation of thrombus formation begins immediately after advancement of the cotton thread apparatus into the central venous circulation. Test compounds were administered from time=30 min to time=150 min at which the experiment was terminated. The rabbits were euthanized and the thrombus excised by surgical dissection and characterized by weight and histology. Blood samples were analyzed for changes in hematological and coagulation parameters.

prothrombinase complex = prothrombinase complex (Homo sapiens, UniProt P00742); assay: Prothrombinase inhibition assay (plasma free system, Chromozym TH); format: biochemical; conditions: read-out: Inhibitory Activity (IC50) Prothrombinase
Sequence of prothrombinase complex (P00742 41-179 limits assumed): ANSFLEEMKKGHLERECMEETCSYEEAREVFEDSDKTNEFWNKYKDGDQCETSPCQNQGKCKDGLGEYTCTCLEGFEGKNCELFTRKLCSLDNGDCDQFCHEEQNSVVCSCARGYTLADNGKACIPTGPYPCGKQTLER
Sequence of prothrombinase complex (P00742 235-488 limits assumed): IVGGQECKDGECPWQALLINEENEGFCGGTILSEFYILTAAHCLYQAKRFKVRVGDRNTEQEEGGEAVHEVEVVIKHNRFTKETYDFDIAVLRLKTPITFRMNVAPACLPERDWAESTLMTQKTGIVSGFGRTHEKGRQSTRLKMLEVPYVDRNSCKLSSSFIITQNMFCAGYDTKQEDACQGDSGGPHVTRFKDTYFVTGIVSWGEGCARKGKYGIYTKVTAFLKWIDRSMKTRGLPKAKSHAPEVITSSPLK
Sequence of prothrombinase complex (P12259 29-737 partner limits assumed): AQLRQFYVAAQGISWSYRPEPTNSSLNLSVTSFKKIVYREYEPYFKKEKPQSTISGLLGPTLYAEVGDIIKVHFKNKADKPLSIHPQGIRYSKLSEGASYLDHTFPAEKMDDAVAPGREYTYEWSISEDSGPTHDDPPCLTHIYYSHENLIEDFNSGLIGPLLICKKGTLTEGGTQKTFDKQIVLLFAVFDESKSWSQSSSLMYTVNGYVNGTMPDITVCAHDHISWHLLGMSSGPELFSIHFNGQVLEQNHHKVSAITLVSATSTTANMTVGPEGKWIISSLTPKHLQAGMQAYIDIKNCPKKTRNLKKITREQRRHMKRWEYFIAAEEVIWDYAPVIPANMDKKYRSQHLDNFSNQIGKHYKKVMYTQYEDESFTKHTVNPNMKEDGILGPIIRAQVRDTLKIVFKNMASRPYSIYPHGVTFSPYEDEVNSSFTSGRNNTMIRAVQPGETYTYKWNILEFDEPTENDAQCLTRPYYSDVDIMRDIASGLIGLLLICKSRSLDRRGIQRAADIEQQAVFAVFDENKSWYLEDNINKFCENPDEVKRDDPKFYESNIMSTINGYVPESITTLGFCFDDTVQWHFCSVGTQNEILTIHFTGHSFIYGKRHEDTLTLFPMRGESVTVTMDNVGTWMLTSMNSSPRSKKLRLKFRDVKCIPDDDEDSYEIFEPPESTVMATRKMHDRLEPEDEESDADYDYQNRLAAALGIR
Sequence of prothrombinase complex (P12259 1574-2224 partner limits assumed): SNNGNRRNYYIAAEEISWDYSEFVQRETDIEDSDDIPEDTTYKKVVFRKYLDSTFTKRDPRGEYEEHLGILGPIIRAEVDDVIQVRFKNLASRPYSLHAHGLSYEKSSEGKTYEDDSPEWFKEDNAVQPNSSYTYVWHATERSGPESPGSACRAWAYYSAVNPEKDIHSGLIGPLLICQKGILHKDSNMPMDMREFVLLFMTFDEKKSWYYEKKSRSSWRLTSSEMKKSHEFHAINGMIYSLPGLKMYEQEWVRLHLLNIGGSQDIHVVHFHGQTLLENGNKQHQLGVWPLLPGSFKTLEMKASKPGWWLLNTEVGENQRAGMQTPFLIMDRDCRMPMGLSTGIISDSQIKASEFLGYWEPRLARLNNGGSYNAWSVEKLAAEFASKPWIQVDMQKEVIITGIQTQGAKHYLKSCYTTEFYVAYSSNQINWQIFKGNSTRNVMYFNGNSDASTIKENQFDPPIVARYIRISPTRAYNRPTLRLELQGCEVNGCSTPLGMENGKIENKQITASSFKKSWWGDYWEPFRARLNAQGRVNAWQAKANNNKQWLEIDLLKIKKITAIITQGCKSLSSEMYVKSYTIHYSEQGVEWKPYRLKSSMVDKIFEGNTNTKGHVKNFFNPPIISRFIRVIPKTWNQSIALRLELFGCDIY
Method: (§1) In the assays for thrombin, prothrombinase and factor Xa, a synthetic chromogenic substrate is added to a solution containing test compound and the enzyme of interest and the residual catalytic activity of that enzyme is determined spectrophotometrically. The IC50 of a compound is determined from the substrate turnover.

[2] = rabbit, in vivo
From the text: as §2

[3] = tested on: Rabbit Model of Venous Thrombosis; assay: Rabbit deep vein thrombosis model, inhibition of thrombus growth; format: in vivo; conditions: for % Inhibition of Thrombosis: rabbit
From the text: as §2

factor Xa = factor Xa (Homo sapiens, UniProt P00742); assay: Factor Xa amidolytic assay (chromogenic substrate S-2765); format: biochemical; conditions: read-out: Inhibitory Activity (IC50) Factor Xa
Sequence of factor Xa (P00742 41-179 limits assumed): as the sequence (P00742 41-179 limits assumed) above
Sequence of factor Xa (P00742 235-488 limits assumed): as the sequence (P00742 235-488 limits assumed) above
Method: as §1

[4] = highest dose (100 μg/kg+2.57 μg/kg/min)

| Structure (SMILES) | IC50 (thrombin) [µM] | PT fold increase over baseline ([1]; 50 + 1.28 (μg/kg + μg/kg/min)) [fold] | aPTT fold increase over baseline ([1]; 50 + 1.28 (μg/kg + μg/kg/min)) [fold] | PT fold increase over baseline ([1]; 75 + 1.93 (μg/kg + μg/kg/min)) [fold] | aPTT fold increase over baseline ([1]; 75 + 1.93 (μg/kg + μg/kg/min)) [fold] | PT fold increase over baseline ([1]; 100 + 2.57 (μg/kg + μg/kg/min)) [fold] | aPTT fold increase over baseline ([1]; 100 + 2.57 (μg/kg + μg/kg/min)) [fold] | effect on PT prolongation [1, 4] | effect on aPTT prolongation [1, 4] | IC50 (prothrombinase complex) [µM] | effects on hematological parameters [2] | antithrombotic efficacy in the rabbit venous thrombosis model ([3]; at the higher doses evaluated) | % Inhibition of Thrombosis ([3]; dose regimen 50 + 1.28 (μg/kg + μg/kg/min)) [%] | % Inhibition of Thrombosis ([3]; dose regimen 75 + 1.93 (μg/kg + μg/kg/min)) [%] | % Inhibition of Thrombosis ([3]; dose regimen 100 + 2.57 (μg/kg + μg/kg/min)) [%] | IC50 (factor Xa) [µM] |
| --- | --- | --- | --- | --- | --- | --- | --- | --- | --- | --- | --- | --- | --- | --- | --- | --- |
| N=C(N)NCCC[C@H](NC(=O)CNC(=O)[C@@H](CCCNC(=N)N)NS(=O)(=O)Cc1ccccc1)C(=O)c1nccs1 [BriSO2 -(D)-Arg-Gly-Arg-thiazole, BnSO2 -(D)-Ar g-Gly-Arg-Thiazole] | 10 |  |  |  |  |  |  |  |  |  |  |  |  |  |  |  |
| NC(N)=NCCCC(N)C(=O)NCC(=O)NC(CCCN=C(N)N)C(=O)c1nccs1 [H-D-Arg-Gly-Arg-thiazole, H-(D)-Arg-Gly-Arg-Thiazole] | 41 | 1.00 ± 0.00 | 1.00 ± 0.03 | 1.00 ± 0.00 | 1.02 ± 0.03 | 0.83 ± 0.00 | 1.08 ± 0.02 | no significant effect | no significant effect | 0.01 | no significant effects | demonstrated antithrombotic efficacy | -7.84 | 42.95 | 117.72 | 0.011 |
